# According to PMC5218480 (PLoS ONE, 2017):
# Tested on: MV-4-11 cells
# Experiment: Gene expression microarray analysis (Affymetrix PrimeView) and GSEA
# Assay type: cell-based, human
# Design: RFU PODN (11730768_x_at) / Fold change /veh PODN (11730768_x_at) / RFU LINC00158 (11744669_a_at) / Fold change /veh LINC00158 (11744669_a_at) / RFU DUSP10 (11751237_a_at) / Fold change /veh DUSP10 (11751237_a_at) / RFU ID3 (11757404_x_at) / Fold change /veh ID3 (11757404_x_at) / RFU PLEKHG5 (11737974_s_at) / Fold change /veh PLEKHG5 (11737974_s_at) / RFU LRRC4B (11730491_at) / Fold change /veh LRRC4B (11730491_at) / RFU GIMAP4 (11747438_a_at) / Fold change /veh GIMAP4 (11747438_a_at) / RFU KRT8 (11758183_x_at) / Fold change /veh KRT8 (11758183_x_at) / RFU CNN1 (11734310_a_at) / Fold change /veh CNN1 (11734310_a_at) / RFU VPS37D (11726825_at) / Fold change /veh VPS37D (11726825_at) / RFU C10orf10 (11716522_x_at) / Fold change /veh C10orf10 (11716522_x_at) / RFU KIR2DL2 /// KIR2DL4 /// KIR2DL5A /// KIR2DL5B /// KIR2DS1 /// KIR2DS2 /// KIR2DS3 /// KIR2DS4 /// KIR3DL3 /// KIR3DL3 /// KIR3DS1 (11738374_at) / Fold change /veh KIR2DL2 /// KIR2DL4 /// KIR2DL5A /// KIR2DL5B /// KIR2DS1 /// KIR2DS2 /// KIR2DS3 /// KIR2DS4 /// KIR3DL3 /// KIR3DL3 /// KIR3DS1 (11738374_at) / RFU C1QL1 (11718748_at) / Fold change /veh C1QL1 (11718748_at) / RFU TMPRSS4 (11747572_a_at) / Fold change /veh TMPRSS4 (11747572_a_at) / RFU HAMP (11756126_x_at) / Fold change /veh HAMP (11756126_x_at) / RFU RNFT2 (11725882_a_at) / Fold change /veh RNFT2 (11725882_a_at) / RFU NR4A2 (11747474_a_at) / Fold change /veh NR4A2 (11747474_a_at) / RFU ABCC12 (11746883_a_at) / Fold change /veh ABCC12 (11746883_a_at) / RFU TMEM136 (11760407_x_at) / Fold change /veh TMEM136 (11760407_x_at) / RFU CLDN22 /// WWC2 (11732394_at) / Fold change /veh CLDN22 /// WWC2 (11732394_at) / RFU HLA-DPB1 (11760878_x_at) / Fold change /veh HLA-DPB1 (11760878_x_at) / RFU SPINT1 (11716480_a_at) / Fold change /veh SPINT1 (11716480_a_at) / RFU GAP43 (11754022_s_at) / Fold change /veh GAP43 (11754022_s_at) / RFU A4GNT (11735810_at) / Fold change /veh A4GNT (11735810_at) / RFU PRB3 (11715151_x_at) / Fold change /veh PRB3 (11715151_x_at) / RFU TUBB4B (11761932_at) / Fold change /veh TUBB4B (11761932_at) / RFU CAPN14 (11732068_a_at) / Fold change /veh CAPN14 (11732068_a_at) / RFU TMCC2 (11721928_a_at) / Fold change /veh TMCC2 (11721928_a_at) / RFU IRGQ (11745062_a_at) / Fold change /veh IRGQ (11745062_a_at) / RFU FAM174B (11720279_a_at) / Fold change /veh FAM174B (11720279_a_at) / RFU TMPRSS4 (11748680_a_at) / Fold change /veh TMPRSS4 (11748680_a_at) / RFU FAM212B (11763350_a_at) / Fold change /veh FAM212B (11763350_a_at) / RFU PLEKHG5 (11743358_a_at) / Fold change /veh PLEKHG5 (11743358_a_at) / RFU ZSCAN30 (11745921_a_at) / Fold change /veh ZSCAN30 (11745921_a_at) / RFU CMKLR1 (11741424_a_at) / Fold change /veh CMKLR1 (11741424_a_at) / RFU LOC101060620 /// MAPK8IP1 (11723275_at) / Fold change /veh LOC101060620 /// MAPK8IP1 (11723275_at) / RFU SPTSSB (11747773_x_at) / Fold change /veh SPTSSB (11747773_x_at) / RFU PRSS12 (11739890_at) / Fold change /veh PRSS12 (11739890_at) / RFU BIN1 (11741810_x_at) / Fold change /veh BIN1 (11741810_x_at) / RFU WNT11 (11732464_a_at) / Fold change /veh WNT11 (11732464_a_at) / RFU C10orf10 (11716521_a_at) / Fold change /veh C10orf10 (11716521_a_at) / RFU C5orf56 (11738089_at) / Fold change /veh C5orf56 (11738089_at) / RFU CYB561 (11721691_x_at) / Fold change /veh CYB561 (11721691_x_at) / RFU ANKRD19P (11752326_a_at) / Fold change /veh ANKRD19P (11752326_a_at) / RFU OR2T12 /// OR2T33 /// OR2T8 (11738714_s_at) / Fold change /veh OR2T12 /// OR2T33 /// OR2T8 (11738714_s_at) / RFU VCAN (11748164_a_at) / Fold change /veh VCAN (11748164_a_at) / RFU JSRP1 (11732532_at) / Fold change /veh JSRP1 (11732532_at) / RFU KRTAP10-11 (11738290_x_at) / Fold change /veh KRTAP10-11 (11738290_x_at) / RFU MYO3A (11730013_a_at) / Fold change /veh MYO3A (11730013_a_at) / RFU EBF3 (11725865_a_at) / Fold change /veh EBF3 (11725865_a_at) / RFU CAMK2N1 (11719241_x_at) / Fold change /veh CAMK2N1 (11719241_x_at) / RFU C5orf56 (11738088_a_at) / Fold change /veh C5orf56 (11738088_a_at) / RFU OLFML3 (11715873_a_at) / Fold change /veh OLFML3 (11715873_a_at) / RFU LOC100653217 /// NTM (11731650_a_at) / Fold change /veh LOC100653217 /// NTM (11731650_a_at) / RFU MAPK11 (11762145_a_at) / Fold change /veh MAPK11 (11762145_a_at) / RFU FIZ1 (11724087_x_at) / Fold change /veh FIZ1 (11724087_x_at) / RFU OASL (11726364_x_at) / Fold change /veh OASL (11726364_x_at) / RFU SOX15 (11748057_x_at) / Fold change /veh SOX15 (11748057_x_at) / RFU CD79A (11719716_a_at) / Fold change /veh CD79A (11719716_a_at) / RFU HIST1H1D (11736915_at) / Fold change /veh HIST1H1D (11736915_at) / RFU CASKIN2 (11723855_a_at) / Fold change /veh CASKIN2 (11723855_a_at) / RFU LOC730098 (11760151_x_at) / Fold change /veh LOC730098 (11760151_x_at) / RFU OR4N2 (11742367_at) / Fold change /veh OR4N2 (11742367_at) / RFU PRRT2 (11749266_a_at) / Fold change /veh PRRT2 (11749266_a_at) / RFU SNX32 (11753110_a_at) / Fold change /veh SNX32 (11753110_a_at) / RFU CDHR5 (11726645_a_at) / Fold change /veh CDHR5 (11726645_a_at) / RFU RCAN1 (11760418_a_at) / Fold change /veh RCAN1 (11760418_a_at) / RFU FAM167A (11723789_a_at) / Fold change /veh FAM167A (11723789_a_at) / RFU FAM26E (11764081_at) / Fold change /veh FAM26E (11764081_at) / RFU ISYNA1 (11749810_s_at) / Fold change /veh ISYNA1 (11749810_s_at) / RFU ACY1 (11761880_at) / Fold change /veh ACY1 (11761880_at) / RFU 11764098_at / Fold change /veh 11764098_at / RFU SAMD14 (11745864_x_at) / Fold change /veh SAMD14 (11745864_x_at) / RFU NPB (11741838_a_at) / Fold change /veh NPB (11741838_a_at) / RFU TMPRSS6 (11731388_a_at) / Fold change /veh TMPRSS6 (11731388_a_at) / RFU KRTAP10-2 (11738614_at) / Fold change /veh KRTAP10-2 (11738614_at) / RFU ARHGAP8 /// PRR5-ARHGAP8 (11727945_x_at) / Fold change /veh ARHGAP8 /// PRR5-ARHGAP8 (11727945_x_at) / RFU KRTAP5-7 /// NADSYN1 (11734609_at) / Fold change /veh KRTAP5-7 /// NADSYN1 (11734609_at) / RFU RASL12 (11751679_a_at) / Fold change /veh RASL12 (11751679_a_at) / RFU CDKN2B (11736163_a_at) / Fold change /veh CDKN2B (11736163_a_at) / RFU PRF1 (11729649_at) / Fold change /veh PRF1 (11729649_at) / RFU, ZNF638 /// ZNF638-IT1 / Fold change vs veh, ZNF638 /// ZNF638-IT1 / RFU, PANK3 / Fold change vs veh, PANK3 / RFU, SH3YL1 / Fold change vs veh, SH3YL1 / RFU, ZEB2 / Fold change vs veh, ZEB2 / RFU, NRIP1 / Fold change vs veh, NRIP1 / RFU, PTTG1IP / Fold change vs veh, PTTG1IP / RFU, CAPN2 / Fold change vs veh, CAPN2 / RFU, MED14 / Fold change vs veh, MED14 / RFU, SNORA58 / Fold change vs veh, SNORA58 / RFU, C1orf63 / Fold change vs veh, C1orf63 / RFU, LRRFIP1 / Fold change vs veh, LRRFIP1 / RFU, NDUFAF7 / Fold change vs veh, NDUFAF7 / RFU, SLC12A2 / Fold change vs veh, SLC12A2 / RFU, IBTK / Fold change vs veh, IBTK / RFU, ESF1 / Fold change vs veh, ESF1 / Fold change vs veh, TMEM50B / RFU, TAOK1 / Fold change vs veh, TAOK1 / RFU, ACBD3 / Fold change vs veh, ACBD3 / RFU, TMA16 / Fold change vs veh, TMA16 / RFU, RWDD3 / Fold change vs veh, RWDD3 / RFU, BCAT1 / Fold change vs veh, BCAT1 / RFU, EDEM3 / Fold change vs veh, EDEM3 / RFU, TMEM33 / Fold change vs veh, TMEM33 / RFU, WDR75 / Fold change vs veh, WDR75 / RFU, AHCTF1 / Fold change vs veh, AHCTF1 / RFU, TFRC / Fold change vs veh, TFRC / RFU, ZDHHC17 / Fold change vs veh, ZDHHC17 / RFU, NOM1 / Fold change vs veh, NOM1 / RFU, ARL8B / Fold change vs veh, ARL8B / RFU, ZBTB11 / Fold change vs veh, ZBTB11 / RFU, TAMM41 / Fold change vs veh, TAMM41 / RFU, KIAA1704 /// LOC100996395 / Fold change vs veh, KIAA1704 /// LOC100996395 / RFU, ING1 / Fold change vs veh, ING1 / RFU, TRMT61B / Fold change vs veh, TRMT61B / RFU, FUBP3 / Fold change vs veh, FUBP3 / RFU, TP53 / Fold change vs veh, TP53 / RFU, TNKS2 / Fold change vs veh, TNKS2 / RFU, ZFP14 / Fold change vs veh, ZFP14 / RFU, ACTR2 / Fold change vs veh, ACTR2 / RFU, PPP3R1 / Fold change vs veh, PPP3R1 / RFU, PIK3R1 / Fold change vs veh, PIK3R1 / RFU, HNRNPA1 / Fold change vs veh, HNRNPA1 / RFU, RNF170 / Fold change vs veh, RNF170 / RFU, ZNF28 / Fold change vs veh, ZNF28 / RFU, RNGTT / Fold change vs veh, RNGTT / RFU, OGT / Fold change vs veh, OGT / RFU, BRD1 / Fold change vs veh, BRD1 / RFU, MARS / Fold change vs veh, MARS / RFU, ZNF655 / Fold change vs veh, ZNF655 / RFU, FAHD1 / Fold change vs veh, FAHD1 / RFU, BDP1 / Fold change vs veh, BDP1 / RFU, LRRCC1 / Fold change vs veh, LRRCC1 / RFU, ARID1A / Fold change vs veh, ARID1A / RFU, ZNF146 / Fold change vs veh, ZNF146 / RFU, ZNF330 / Fold change vs veh, ZNF330 / RFU, GPN3 / Fold change vs veh, GPN3 / RFU, C9orf123 / Fold change vs veh, C9orf123 / RFU, N4BP2L2 / Fold change vs veh, N4BP2L2 / RFU, ARFIP1 / Fold change vs veh, ARFIP1 / RFU, FAM179B / Fold change vs veh, FAM179B / RFU, BCL10 / Fold change vs veh, BCL10 / RFU, UHRF1BP1L / Fold change vs veh, UHRF1BP1L / RFU, BET1 / Fold change vs veh, BET1 / RFU, CNOT2 / Fold change vs veh, CNOT2 / RFU, ZNF268 / Fold change vs veh, ZNF268 / Fold change vs veh, ZNF507 / RFU, DGCR2 / Fold change vs veh, DGCR2 / RFU, WDSUB1 / Fold change vs veh, WDSUB1 / Fold change vs veh, HSP90B1 /// MIR3652 / RFU, ADSS / Fold change vs veh, ADSS / RFU, GK / Fold change vs veh, GK / RFU, ZNF148 / Fold change vs veh, ZNF148 / RFU, TAF9 / Fold change vs veh, TAF9 / RFU, SLC1A5 / Fold change vs veh, SLC1A5 / RFU, SLMO2 / Fold change vs veh, SLMO2 / RFU, ABCC4 / Fold change vs veh, ABCC4 / RFU, LOC101060439 /// RAP1B / Fold change vs veh, LOC101060439 /// RAP1B / RFU, RFX7 / Fold change vs veh, RFX7 / RFU, GTPBP10 / Fold change vs veh, GTPBP10 / RFU, CNEP1R1 / Fold change vs veh, CNEP1R1 / RFU, BIVM-ERCC5 /// ERCC5 / Fold change vs veh, BIVM-ERCC5 /// ERCC5 / RFU, ILF3 / Fold change vs veh, ILF3 / RFU 11762660_at / Fold change /veh 11762660_at / RFU VCAN (11757783_s_at) / Fold change /veh VCAN (11757783_s_at) / RFU DDX43 (11728927_at) / Fold change /veh DDX43 (11728927_at) / RFU KRT8 (11758188_x_at) / Fold change /veh KRT8 (11758188_x_at) / RFU NKD1 (11759106_at) / Fold change /veh NKD1 (11759106_at) / RFU SRD5A1 (11742802_a_at) / Fold change /veh SRD5A1 (11742802_a_at) / RFU TPSAB1 /// TPSB2 (11721975_s_at) / Fold change /veh TPSAB1 /// TPSB2 (11721975_s_at) / RFU GSTM3 (11746129_a_at) / Fold change /veh GSTM3 (11746129_a_at) / RFU IL23R (11737362_x_at) / Fold change /veh IL23R (11737362_x_at) / RFU TMEM51 (11727254_a_at) / Fold change /veh TMEM51 (11727254_a_at) / RFU PIWIL2 (11732686_x_at) / Fold change /veh PIWIL2 (11732686_x_at) / RFU ORM1 (11744905_x_at) / Fold change /veh ORM1 (11744905_x_at) / RFU CCDC152 (11743942_at) / Fold change /veh CCDC152 (11743942_at) / RFU ECM1 (11717891_a_at) / Fold change /veh ECM1 (11717891_a_at) / RFU IL23R (11748794_a_at) / Fold change /veh IL23R (11748794_a_at) / RFU TNFAIP8L3 (11732012_x_at) / Fold change /veh TNFAIP8L3 (11732012_x_at) / RFU MBOAT4 (11741988_at) / Fold change /veh MBOAT4 (11741988_at) / RFU 11764193_at / Fold change /veh 11764193_at / RFU TMEM53 (11763286_at) / Fold change /veh TMEM53 (11763286_at) / RFU MAGEB2 (11727129_at) / Fold change /veh MAGEB2 (11727129_at) / RFU TMEM200A (11744735_a_at) / Fold change /veh TMEM200A (11744735_a_at) / RFU CCDC152 (11751479_a_at) / Fold change /veh CCDC152 (11751479_a_at) / RFU FAM211A (11726209_a_at) / Fold change /veh FAM211A (11726209_a_at) / RFU RGS16 (11746705_a_at) / Fold change /veh RGS16 (11746705_a_at) / RFU VCAN (11755009_s_at) / Fold change /veh VCAN (11755009_s_at) / RFU RHOB (11743442_s_at) / Fold change /veh RHOB (11743442_s_at) / RFU RGS16 (11720943_a_at) / Fold change /veh RGS16 (11720943_a_at) / RFU RGS16 (11720944_at) / Fold change /veh RGS16 (11720944_at) / RFU, VPS4B / Fold change vs veh, VPS4B / RFU, CREB1 / Fold change vs veh, CREB1 / RFU, DNAJC13 / Fold change vs veh, DNAJC13 / RFU, GNAQ / Fold change vs veh, GNAQ / RFU, CDK5R1 / Fold change vs veh, CDK5R1 / RFU, ZRANB3 / Fold change vs veh, ZRANB3 / RFU, CUL4A / Fold change vs veh, CUL4A / RFU, CCNY / Fold change vs veh, CCNY / RFU, UFL1 / Fold change vs veh, UFL1 / RFU, COG3 / Fold change vs veh, COG3 / RFU, DIAPH2 / Fold change vs veh, DIAPH2 / RFU, SKA2 / Fold change vs veh, SKA2 / RFU, AFF3 / Fold change vs veh, AFF3 / RFU, LMF1 / Fold change vs veh, LMF1 / RFU, IPO11 / Fold change vs veh, IPO11 / RFU, DFFB / Fold change vs veh, DFFB / RFU, FOXP1 / Fold change vs veh, FOXP1 / RFU, CARD8 / Fold change vs veh, CARD8 / RFU, STRN3 / Fold change vs veh, STRN3 / RFU, ADK / Fold change vs veh, ADK / RFU, RASSF2 / Fold change vs veh, RASSF2 / RFU, WIPF1 / Fold change vs veh, WIPF1 / RFU, LARP1B / Fold change vs veh, LARP1B / RFU, RASA1 / Fold change vs veh, RASA1 / RFU, RB1 / Fold change vs veh, RB1 / RFU, PPFIA1 / Fold change vs veh, PPFIA1 / RFU, MAT2A / Fold change vs veh, MAT2A / RFU, CCT5 / Fold change vs veh, CCT5 / RFU, WDR92 / Fold change vs veh, WDR92 / RFU, CUX1 / Fold change vs veh, CUX1 / RFU, TTC7A / Fold change vs veh, TTC7A / RFU, TMEM135 / Fold change vs veh, TMEM135 / RFU, DEPTOR / Fold change vs veh, DEPTOR / RFU, CPM / Fold change vs veh, CPM / RFU, DNAJB6 / Fold change vs veh, DNAJB6 / RFU, CACNA2D3 / Fold change vs veh, CACNA2D3 / RFU, DTX4 / Fold change vs veh, DTX4 / RFU, TFCP2 / Fold change vs veh, TFCP2 / RFU, GMCL1 /// GMCL1P1 / Fold change vs veh, GMCL1 /// GMCL1P1 / RFU, AEBP2 / Fold change vs veh, AEBP2 / RFU, SNHG1 /// SNORD22 /// SNORD25 /// SNORD26 /// SNORD27 /// SNORD28 /// SNORD29 /// SNORD31 / Fold change vs veh, SNHG1 /// SNORD22 /// SNORD25 /// SNORD26 /// SNORD27 /// SNORD28 /// SNORD29 /// SNORD31 / Fold change (Aza/veh), C12orf56 (ProbeSet 11735607_a_at) / Fold change (ACY-1035/veh), C12orf56 (ProbeSet 11735607_a_at) / Fold change (Aza/veh), FGFR1OP (ProbeSet 11751329_s_at) / Fold change (ACY-1035/veh), FGFR1OP (ProbeSet 11751329_s_at) / Fold change (Aza/veh), VPS36 (ProbeSet 11739960_a_at) / Fold change (ACY-1035/veh), VPS36 (ProbeSet 11739960_a_at) / RFU SYPL1 (11715823_x_at) / Fold change /veh SYPL1 (11715823_x_at) / RFU IGFBP7 (11715501_s_at) / Fold change /veh IGFBP7 (11715501_s_at) / RFU REEP3 (11722064_at) / Fold change /veh REEP3 (11722064_at) / RFU IGLL1 (11728026_x_at) / Fold change /veh IGLL1 (11728026_x_at): dose or concentration left out as unconfirmed
# Conditions: ProbeSet 11722463_a_at; LIST B
smiles,measurement,value
Nc1ncn([C@@H]2O[C@H](CO)[C@@H](O)[C@H]2O)c(=O)n1 [azacitidine],"Fold change vs veh, TNKS2",0.86
